Laboratory results from patent publication US20260258004A1, “CRYSTALLINE FORMS OF (6S)-5-[4'-FLUORO-2-(TRIFLUOROMETHYL)BIPHENYL-4-YL]-6-METHYL-3,6- DIHYDRO-2H-l,3,4-OXADIAZIN-2-ONE” (Bayer Aktiengesellschaft, priority 2022, published 2026).

Test: Schulze ring shear test (flow properties)
Type: physicochemical
Details: normal load 1.5 kPa, 24° C., humidity 30%, no storage time
Source text: The device used is the Schulze ring shear tester RST-XS.s for which a general technical product information is available on http://www.dietmar-schulze.de. We were using the shear cell XS-SV3. A statement referring to the testing procedure from the technical product information for RST-XS.s reads as follows: • “Testing procedure: The powder sample is contained in an annular shear cell “(FIG. 19B). • “A vertical load ? N] is applied through a thin loading rod on the annular lid. To shear the sample, the shear cell rotates relative to the lid (direction ω), and the torque necessary for shearing is determined from forces and F1 and F2 acting in a tie rod and a push rod. Following a well-defined procedure, which is executed computer-controlled, the flow properties are measured. […]
During the shear test, the bottom ring slowly rotated in the direction of the arrow with the low rotational speed ω of 2 rpm maximum. Rotation of the lid was prevented by the tension rods; the tensile forces F1 and F2 necessary to achieve this are measured by the load cells. From the normal and shear forces respectively stresses, the so-called yield locus was determined, which describes the flow behavior of a bulk solid. […]
The experimental data obtained were analyzed following the method described in Schulze, D. (2008). […] FIG. 21 provides the flow factor of both samples as calculated on basis of the ring shear experiment. […]

C[C@@H]1OC(=O)NN=C1c1ccc(-c2ccc(F)cc2)c(C(F)(F)F)c1 [polymorph C, (6S)-5-[4′-Fluoro-2-(trifluoromethyl)biphenyl-4-yl]-6-methyl-3,6-dihydro-2H-1,3,4-oxadiazin-2-one]
flow behaviour (flow factor ffc): flowing a bit better than polymorph A
